Compound: CN(C)CC1=CC(=CC=C1)N=C(C2=CC=CC=C2)C3=C(NC4=C3C=CC(=C4)C(=O)N(C)C)O
Test: relative viability (nuclei count vs DMSO), 5 days (fraction); higher = more cells survive
Method in brief: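 A plate was accepted only when its control CV was below 25% and the cells had doubled at least once. Viability is defined from nuclear counts as treated wells divided by vehicle wells, with the median taken across plates. That median covers lung cancer cell lines grown in 1536-well plates, dosed by pinning at five √10-spaced library-drug concentrations, and counted in MetaXpress from 4× Hoechst images after 5 days.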

201T
relative viability (0.08 µM): 0.983 | relative viability (0.253 µM): 1.02 | relative viability (0.8 µM): 0.997 | relative viability (2.53 µM): 0.947 | relative viability (8 µM): 0.901

A549
relative viability (0.08 µM): 1.01 | relative viability (0.253 µM): 0.991 | relative viability (0.8 µM): 1.01 | relative viability (2.53 µM): 0.929 | relative viability (8 µM): 0.901

A-427
relative viability (0.08 µM): 1.02 | relative viability (0.253 µM): 1.07 | relative viability (0.8 µM): 0.974 | relative viability (2.53 µM): 0.963 | relative viability (8 µM): 0.98

ABC-1
relative viability (0.08 µM): 1.1 | relative viability (0.253 µM): 1.05 | relative viability (0.8 µM): 0.971 | relative viability (2.53 µM): 0.891 | relative viability (8 µM): 0.864

BEN
relative viability (0.08 µM): 0.904 | relative viability (0.253 µM): 0.944 | relative viability (0.8 µM): 0.988 | relative viability (2.53 µM): 1 | relative viability (8 µM): 0.909

CAL-12T
relative viability (0.08 µM): 1.07 | relative viability (0.253 µM): 1.02 | relative viability (0.8 µM): 1.09 | relative viability (2.53 µM): 1.01 | relative viability (8 µM): 1.12

COR-L23
relative viability (0.08 µM): 1.04 | relative viability (0.253 µM): 1.02 | relative viability (0.8 µM): 1.09 | relative viability (2.53 µM): 0.95 | relative viability (8 µM): 0.967

COR-L 105
relative viability (0.08 µM): 1.04 | relative viability (0.253 µM): 1.03 | relative viability (0.8 µM): 0.926 | relative viability (2.53 µM): 0.928 | relative viability (8 µM): 0.787

Calu-6
relative viability (0.08 µM): 1.1 | relative viability (0.253 µM): 1.05 | relative viability (0.8 µM): 1.01 | relative viability (2.53 µM): 0.986 | relative viability (8 µM): 0.977

ChaGo-K-1
relative viability (0.08 µM): 0.948 | relative viability (0.253 µM): 0.993 | relative viability (0.8 µM): 1.02 | relative viability (2.53 µM): 0.947 | relative viability (8 µM): 1.01

EKVX
relative viability (0.08 µM): 0.981 | relative viability (0.253 µM): 0.919 | relative viability (0.8 µM): 0.819 | relative viability (2.53 µM): 1.05 | relative viability (8 µM): 0.996

EMC-BAC-2
relative viability (0.08 µM): 1.02 | relative viability (0.253 µM): 1.06 | relative viability (0.8 µM): 1.03 | relative viability (2.53 µM): 0.939 | relative viability (8 µM): 1.08

EPLC-272H
relative viability (0.08 µM): 0.837 | relative viability (0.253 µM): 1 | relative viability (0.8 µM): 0.838 | relative viability (2.53 µM): 1.15 | relative viability (8 µM): 0.792

H3255
relative viability (0.08 µM): 0.942 | relative viability (0.253 µM): 1.02 | relative viability (0.8 µM): 0.889 | relative viability (2.53 µM): 1.02 | relative viability (8 µM): 1.04

HARA
relative viability (0.08 µM): 0.953 | relative viability (0.253 µM): 0.946 | relative viability (0.8 µM): 0.742 | relative viability (2.53 µM): 0.986 | relative viability (8 µM): 1.08

HCC-15
relative viability (0.08 µM): 0.996 | relative viability (0.253 µM): 0.995 | relative viability (0.8 µM): 1.03 | relative viability (2.53 µM): 1.05 | relative viability (8 µM): 1.09

HCC-44
relative viability (0.08 µM): 1.08 | relative viability (0.253 µM): 0.987 | relative viability (0.8 µM): 1.03 | relative viability (2.53 µM): 0.949 | relative viability (8 µM): 1.05

HCC-78
relative viability (0.08 µM): 0.993 | relative viability (0.253 µM): 0.95 | relative viability (0.8 µM): 0.967 | relative viability (2.53 µM): 1.02 | relative viability (8 µM): 0.958

HCC-366
relative viability (0.08 µM): 1 | relative viability (0.253 µM): 0.985 | relative viability (0.8 µM): 1.01 | relative viability (2.53 µM): 0.978 | relative viability (8 µM): 0.955

HCC-827
relative viability (0.08 µM): 0.999 | relative viability (0.253 µM): 1.03 | relative viability (0.8 µM): 1.06 | relative viability (2.53 µM): 0.953 | relative viability (8 µM): 0.916

HOP-62
relative viability (0.08 µM): 1.05 | relative viability (0.253 µM): 0.965 | relative viability (0.8 µM): 1.04 | relative viability (2.53 µM): 0.981 | relative viability (8 µM): 0.97

IA-LM
relative viability (0.08 µM): 0.961 | relative viability (0.253 µM): 0.871 | relative viability (0.8 µM): 1.03 | relative viability (2.53 µM): 1.07 | relative viability (8 µM): 1.13

LC-2-ad
relative viability (0.08 µM): 1.01 | relative viability (0.253 µM): 1.04 | relative viability (0.8 µM): 1.08 | relative viability (2.53 µM): 0.925 | relative viability (8 µM): 0.84

LCLC-97TM1
relative viability (0.08 µM): 0.907 | relative viability (0.253 µM): 1.04 | relative viability (0.8 µM): 1.02 | relative viability (2.53 µM): 1.13 | relative viability (8 µM): 1.13

LCLC-103H
relative viability (0.08 µM): 0.951 | relative viability (0.253 µM): 1.07 | relative viability (0.8 µM): 0.931 | relative viability (2.53 µM): 0.986 | relative viability (8 µM): 0.915

LK-2
relative viability (0.08 µM): 1.13 | relative viability (0.253 µM): 1.04 | relative viability (0.8 µM): 0.909 | relative viability (2.53 µM): 0.991 | relative viability (8 µM): 0.853

LOU-NH91
relative viability (0.08 µM): 0.954 | relative viability (0.253 µM): 1.03 | relative viability (0.8 µM): 0.789 | relative viability (2.53 µM): 0.96 | relative viability (8 µM): 0.913

LU99A
relative viability (0.08 µM): 0.893 | relative viability (0.253 µM): 0.934 | relative viability (0.8 µM): 0.966 | relative viability (2.53 µM): 0.885 | relative viability (8 µM): 0.87

LXF-289
relative viability (0.08 µM): 1.01 | relative viability (0.253 µM): 0.955 | relative viability (0.8 µM): 0.993 | relative viability (2.53 µM): 0.971 | relative viability (8 µM): 0.955

NCI-H23
relative viability (0.08 µM): 1.09 | relative viability (0.253 µM): 1.03 | relative viability (0.8 µM): 1.06 | relative viability (2.53 µM): 1.02 | relative viability (8 µM): 0.815

NCI-H322M
relative viability (0.08 µM): 0.823 | relative viability (0.253 µM): 0.996 | relative viability (0.8 µM): 0.794 | relative viability (2.53 µM): 0.75 | relative viability (8 µM): 0.651

NCI-H358
relative viability (0.08 µM): 0.94 | relative viability (0.253 µM): 0.789 | relative viability (0.8 µM): 0.705 | relative viability (2.53 µM): 0.879 | relative viability (8 µM): 0.784

NCI-H441
relative viability (0.08 µM): 1.03 | relative viability (0.253 µM): 1.14 | relative viability (0.8 µM): 1.2 | relative viability (2.53 µM): 0.984 | relative viability (8 µM): 0.923

NCI-H460
relative viability (0.08 µM): 0.981 | relative viability (0.253 µM): 1.04 | relative viability (0.8 µM): 1.04 | relative viability (2.53 µM): 0.933 | relative viability (8 µM): 1.01

NCI-H520
relative viability (0.08 µM): 0.879 | relative viability (0.253 µM): 0.958 | relative viability (0.8 µM): 1.01 | relative viability (2.53 µM): 0.932 | relative viability (8 µM): 0.881

NCI-H522
relative viability (0.08 µM): 1.1 | relative viability (0.253 µM): 1.01 | relative viability (0.8 µM): 0.829 | relative viability (2.53 µM): 0.958 | relative viability (8 µM): 0.913

NCI-H596
relative viability (0.08 µM): 1.05 | relative viability (0.253 µM): 0.973 | relative viability (0.8 µM): 0.975 | relative viability (2.53 µM): 1.01 | relative viability (8 µM): 0.882

NCI-H647
relative viability (0.08 µM): 0.997 | relative viability (0.253 µM): 0.864 | relative viability (0.8 µM): 0.888 | relative viability (2.53 µM): 0.909 | relative viability (8 µM): 0.78

NCI-H650
relative viability (0.08 µM): 0.941 | relative viability (0.253 µM): 1.02 | relative viability (0.8 µM): 1.1 | relative viability (2.53 µM): 0.963 | relative viability (8 µM): 0.782
